In patent publication US9724358B2, “Minocycline compounds and methods of use thereof” (Paratek Pharmaceuticals, Inc., priority 2008, dated 2017):

Experiments:
[1] = tested on: MSSA; assay: Phase 2 CSSSI study, clinical outcome by organism: MSSA; assay type: in vivo, Staphylococcus aureus
Procedure: (§1) A randomized (1:1), controlled, evaluator-blinded Phase 2 study comparing 9-[(2,2-dimethyl-propyl amino)-methyl-minocycline (compound 1) and linezolid (Zyvox™) for the treatment of complicated skin and skin structure infections (CSSSI) was conducted. Patients with CSSSI who required initial intravenous (IV) therapy and met inclusion and exclusion criteria were enrolled at 11 centers in the US and were randomized to receive either compound 1 (100 mg Q24 h IV with 200 mg Q24 h oral step-down) or linezolid (600 mg Q12 h IV with 600 mg Q12 h oral step-down).
(§2) An infecting pathogen was defined as an isolate derived from the last positive culture taken from the site of infection under study prior to and including day 1.

[2] = tested on: MRSA; assay: Phase 2 CSSSI study, clinical outcome by organism: MRSA; assay type: in vivo, Staphylococcus aureus
Procedure: as §1, §2

[3] = tested on: B-Strep; assay: Phase 2 CSSSI study, clinical outcome by organism: B-Strep; assay type: in vivo, B-streptococci
Procedure: as §1, §2

[4] = tested on: Viridans Strep; assay: Phase 2 CSSSI study, clinical outcome by organism: Viridans Strep; assay type: in vivo, Viridans Streptococci; settings: ME population
Procedure: as §1, §2

[5] = tested on: Enterococcus; assay: Phase 2 CSSSI study, clinical outcome by organism: Enterococcus; assay type: in vivo; settings: ME population
Procedure: as §1, §2

[6] = tested on: G+ anaerobes; assay: Phase 2 CSSSI study, clinical outcome by organism: G+ anaerobes; assay type: in vivo, gram-positive anaerobes; settings: ME population
Procedure: as §1, §2

[7] = tested on: Mixed GPC/GNR; assay: Phase 2 CSSSI study, clinical outcome by organism: Mixed GPC/GNR; assay type: in vivo; settings: ME population
Procedure: as §1, §2

[8] = tested on: infecting pathogen; assay: Phase 2 CSSSI study, microbiology outcome; assay type: in vivo, human; settings: ME population
Procedure: as §2
A persisting pathogen at the site of infection under study was defined as an isolate that was the same genus and species as an infecting pathogen; and was cultured at the Test-of-Cure evaluation from the site of infection under study.
A superinfecting pathogen at the site of infection under study is defined as a pathogen meeting all of the following criteria: represented a genus and species not isolated during the Enrollment evaluation, was cultured at any time from the day 3 of treatment to the test of cure evaluation, inclusive; was cultured from a patient who had at least one infecting pathogen; and was cultured from a patient who represents a “clinical failure.”
Microbiological response to treatment was determined for each infecting pathogen using the following classification: documented eradication, presumed eradication, documented persistence, presumed persistence, or unknown.
Microbiological response to treatment was determined for each subject using the following classification:
Microbiologic Success—all infecting pathogens isolated at baseline were eradicated or presumed eradicated at the test-of-cure evaluation and no superinfecting pathogen was isolated from the site of infection under study.
Microbiological Failure—persistence or presumed persistence of one or more infecting pathogens or isolation of a superinfecting pathogen from the site of infection under study.

[9] = Phase 2 CSSSI study, safety and adverse events by patient; assay type: in vivo, human
Procedure: as §1
(§3) At each of the four structured evaluations, the blinded evaluator assessed the subject, with particular attention to scoring the findings at the primary site of infection and obtaining cultures. Clinical and microbiologic outcomes were determined using these assessments. Primary evaluation criteria was safety and tolerability compared with linezolid. Secondary evaluation criteria was efficacy of compound 1 compared to linezolid, as well as pharmacokinetics of compound 1.
In addition, the patients in the study were monitored for adverse events (AE). An adverse event is any untoward medical occurrence temporally associated with the use of a medical product in a subject, whether or not the event is considered causally related to the medical product.

[10] = Phase 2 CSSSI study, safety: ALT level; assay type: in vivo, human
Procedure: as §1, §3

[11] = as determined in the trials of the Exemplification
[12] = clinical failure, no pathogen at TOC
[13] = clinical success, enrollment pathogen isolated at TOC
[14] = clinical success, no pathogen at TOC
[15] = probably or possibly drug-related by blinded evaluator
[16] = EOT, ALT abnormal at enrollment
[17] = EOT, ALT within normal limits at enrollment
[18] = TOC, ALT abnormal at enrollment
[19] = TOC, ALT within normal limits at enrollment
[20] = max on treatment, ALT abnormal at enrollment
[21] = max on treatment, ALT within normal limits at enrollment

SMILES: CN(C)c1cc(CNCC(C)(C)C)c(O)c2c1C[C@H]1C[C@H]3[C@H](N(C)C)C(O)=C(C(N)=O)C(=O)[C@@]3(O)C(O)=C1C2=O [Compound 1, 9-[(2,2-dimethyl-propylamino)-methyl]-minocycline]
- Clinical outcome Failure (number) ([1]; ME population, MSSA): 2
- Clinical outcome Success (number) ([1]; ME population, MSSA): 27
- clinical success rate against MSSA [1, 11]: 93%
- Clinical outcome Failure (number) ([2]; ME population, MRSA): 0
- Clinical outcome Success (number) ([2]; ME population, MRSA): 42
- Clinical outcome Failure (number) ([2]; ME population, MRSA, listed as compound 1): none
- clinical success rate against MRSA [2, 11]: 100%
- Clinical outcome Failure (number) ([3]; ME population, B-Strep): 0
- Clinical outcome Success (number) ([3]; ME population, B-Strep): 6
- clinical success rate against B. streptococci [3, 11]: 100%
- Clinical outcome Failure (number) [4]: 1
- Clinical outcome Success (number) [4]: 3
- Clinical outcome Failure (number) [5]: 1
- Clinical outcome Success (number) [5]: 1
- Clinical outcome Failure (number) [6]: 0
- Clinical outcome Success (number) [6]: 0
- Clinical outcome Failure (number) [7]: 2
- Clinical outcome Success (number) [7]: 12
- Presumed Persistence (% of subjects) [8, 12]: 2.7%
- Presumed Persistence (number of subjects) [8, 12]: 2
- Persistence (% of subjects) [8, 13]: 2.7%
- Persistence (number of subjects) [8, 13]: 2
- Presumed Eradication (% of subjects) [8, 14]: 94.7%
- Presumed Eradication (number of subjects) [8, 14]: 71
- tolerability ([9]; 100 mg Q24 h IV with 200 mg Q24 h oral step-down): well tolerated
- Adverse events by patient, Musculoskeletal, Drug Related ([9]; human, in vivo): 0
- Adverse events by patient, Musculoskeletal, Total ([9]; human, in vivo): 8
- GI events leading to discontinuation of therapy ([9]; human, in vivo): did not result in discontinuation of therapy
- severity of GI events ([9]; observed almost entirely during oral therapy): mild
- Adverse events by patient, Cardiac, Drug Related [9, 15]: 0
- Adverse events by patient, Ear, Drug Related [9, 15]: 0
- Adverse events by patient, Eye, Drug Related [9, 15]: 0
- Adverse events by patient, GI, Drug Related [9, 15]: 12
- Adverse events by patient, General, Drug Related [9, 15]: 5
- Adverse events by patient, Heme, Drug Related [9, 15]: 0
- Adverse events by patient, Infection, Drug Related [9, 15]: 0
- Adverse events by patient, Injury, Drug Related [9, 15]: 0
- Adverse events by patient, Investigations, Drug Related [9, 15]: 3
- Adverse events by patient, Metabolism, Drug Related [9, 15]: 1
- Adverse events by patient, Neurologic, Drug Related [9, 15]: 4
- Adverse events by patient, Psych, Drug Related [9, 15]: 2
- Adverse events by patient, Renal, Drug Related [9, 15]: 1
- Adverse events by patient, Reproductive, Drug Related [9, 15]: 0
- Adverse events by patient, Respiratory, Drug Related [9, 15]: 0
- Adverse events by patient, Skin, Drug Related [9, 15]: 7
- Adverse events by patient, Vascular, Drug Related [9, 15]: 0
- Adverse events by patient, Cardiac, Total ([9]; safety population): 4
- Adverse events by patient, Ear, Total ([9]; safety population): 0
- Adverse events by patient, Eye, Total ([9]; safety population): 2
- Adverse events by patient, GI, Total ([9]; safety population): 21
- Adverse events by patient, General, Total ([9]; safety population): 11
- Adverse events by patient, Heme, Total ([9]; safety population): 1
- Adverse events by patient, Infection, Total ([9]; safety population): 6
- Adverse events by patient, Injury, Total ([9]; safety population): 1
- Adverse events by patient, Investigations, Total ([9]; safety population): 7
- Adverse events by patient, Metabolism, Total ([9]; safety population): 9
- Adverse events by patient, Neurologic, Total ([9]; safety population): 12
- Adverse events by patient, Psych, Total ([9]; safety population): 5
- Adverse events by patient, Renal, Total ([9]; safety population): 2
- Adverse events by patient, Reproductive, Total ([9]; safety population): 2
- Adverse events by patient, Respiratory, Total ([9]; safety population): 3
- Adverse events by patient, Skin, Total ([9]; safety population): 12
- Adverse events by patient, Vascular, Total ([9]; safety population): 3
- Patients with no adverse event (None), % ([9]; safety population): 58.6%
- Patients with no adverse event (None), number ([9]; safety population): 65
- Total Patients with 1 or more AE, % ([9]; safety population): 41.4%
- Total Patients with 1 or more AE, number ([9]; safety population): 56
- ALT Increase: >2x ULN and 2x baseline (number) [10, 16]: 0
- ALT NS: >ULN and <2x baseline (%) [10, 16]: 84.6%
- ALT NS: >ULN and <2x baseline (number) [10, 16]: 11
- ALT Within normal limits (%) [10, 16]: 15.4%
- ALT Within normal limits (number) [10, 16]: 2
- ALT 1x-2x (%) [10, 17]: 6.5%
- ALT 1x-2x (number) [10, 17]: 6
- ALT 2x-3x (number) [10, 17]: 0
- ALT >3x (number) [10, 17]: 0
- ALT Within normal limits (%) [10, 17]: 93.5%
- ALT Within normal limits (number) [10, 17]: 86
- ALT Increase: >2x ULN and 2x baseline (%) [10, 18]: (7.7%)
- ALT Increase: >2x ULN and 2x baseline (number) [10, 18]: 1
- ALT NS: >ULN and <2x baseline (%) [10, 18]: (69.2%)
- ALT NS: >ULN and <2x baseline (number) [10, 18]: 9
- ALT Within normal limits (%) [10, 18]: (23.1%)
- ALT Within normal limits (number) [10, 18]: 3
- ALT 1x-2x (%) [10, 19]: (5.6%)
- ALT 1x-2x (number) [10, 19]: 5
- ALT 2x-3x (number) [10, 19]: 0
- ALT >3x (number) [10, 19]: 0
- ALT Within normal limits (%) [10, 19]: (94.4%)
- ALT Within normal limits (number) [10, 19]: 85
- ALT Increase: >2x ULN and 2x baseline (%) [10, 20]: (14.3%)
- ALT Increase: >2x ULN and 2x baseline (number) [10, 20]: 2
- ALT NS: >ULN and <2x baseline (%) [10, 20]: (78.6%)
- ALT NS: >ULN and <2x baseline (number) [10, 20]: 11
- ALT Within normal limits (%) [10, 20]: (7.1%)
- ALT Within normal limits (number) [10, 20]: 1
- ALT 1x-2x (%) [10, 21]: (12.4%)
- ALT 1x-2x (number) [10, 21]: 12
- ALT 2x-3x (number) [10, 21]: 0
- ALT >3x (%) [10, 21]: (1.0%)
- ALT >3x (number) [10, 21]: 1
- ALT Within normal limits (%) [10, 21]: (86.6%)
- ALT Within normal limits (number) [10, 21]: 84
